Read-outs that look alike come from different tables or passages of the source. Where only a bound is given, the exact number is not on record here.

For assay [1], the system named is Mycosphaerella graminicola (Septoria tritici). Put plainly: Mycosphaerella graminicola (Septoria tritici) / liquid culture (Septoria blotch). Format: cell-based. Conditions: Zymoseptoria tritici, read-out: control of Mycosphaerella graminicola.
The test system of assay [2] is Pyrenophora teres. Put plainly: Pyrenophora teres / barley / leaf disc preventative (net blotch). Conditions: 200 ppm, 5-7 days after application, vs untreated control. Format: in vivo. The text has this:
Pyrenophora teres/Barley/Leaf Disc Preventative (Net Blotch) Barley leaf segments cv. […] The leaf segments are inoculated with a spore suspension of the fungus 2 days after application. […] P5.

The subject of assay [3] is Phaeosphaeria nodorum (Septoria nodorum). Put plainly: Phaeosphaeria nodorum (Septoria nodorum) / wheat / leaf disc preventative (glume blotch). Conditions: 200 ppm, 5-7 days after application, vs untreated control. Format: in vivo. An excerpt:
Phaeosphaeria Nodorum (Septoria nodorum)/Wheat/Leaf Disc Preventative (Glume Blotch) Wheat leaf segments cv. […] The leaf disks are inoculated with a spore suspension of the fungus 2 days after application. […] P3.

The mark [4] stands for this setting: 20 ppm, liquid culture, growth inhibition photometrically 4-5 days after application, vs untreated control.

For `Cc1sc(Nc2cnsc2)nc1C(=O)NC1CCC1(C)C` (stereo not shown) [Compound P6, N-(2,2-dimethylcyclobutyl)-2-(isothiazol-4-ylamino)-5-methyl-thiazole-4-carboxamide], the inhibition of growth at 20 ppm in assay [1] is not below 80%.

For the compound `Cc1sc(Nc2cnsc2)nc1C(=O)NC(C)c1ccccc1` (stereo not shown) [Compound P4, 2-(isothiazol-4-ylamino)-5-methyl-N-(1-phenylethyl) thiazole-4-carboxamide], the inhibition of growth at 20 ppm in assay [1] (setting [4]) was not below 80%.

Regarding `Cc1sc(N(C#N)c2cnsc2)nc1C(=O)NC1CCC12CCCC2` (stereo not shown) [Compound P9, 2-cyano(isothiazol-4-yl)amino-5-methyl-N-spiro 3.4 octan-3-yl-thiazole-4-carboxamide], the inhibition of growth at 20 ppm in assay [1] (setting [4]) was not below 80%.

As for `Cc1sc(Nc2cnsc2)nc1C(=O)NC1CCC12CCCC2` (stereo not shown) [Compound P5, 2-(isothiazol-4-ylamino)-5-methyl-N-spiro 3.4 octan-3-yl-thiazole-4-carboxamide], the “control of Pyrenophora teres” value in assay [2] is “at least 80%”. In assay [1] (setting [4]), the inhibition of growth at 20 ppm is not below 80%.

In the case of `CCCCNC(=O)c1nc(Nc2cnsc2)sc1C` [Compound P1, N-butyl-2-(isothiazol-4-ylamino)-5-methyl-thiazole-4-carboxamide], the inhibition of growth at 20 ppm in assay [1] (setting [4]) is not below 80%.

In the case of `Cc1sc(Nc2cnsc2)nc1C(=O)NCC(C)(C)C` [Compound P2, N-(2,2-dimethylpropyl)-2-(isothiazol-4-ylamino)-5-methyl-thiazole-4-carboxamide], the inhibition of growth at 20 ppm in assay [1] (setting [4]) is not below 80%.

Consider `Cc1sc(Nc2cnsc2)nc1C(=O)NCCC(C)C` [Compound P3, N-isopentyl-2-(isothiazol-4-ylamino)-5-methyl-thiazole-4-carboxamide], for which, in assay [3], the “control of Phaeosphaeria nodorum” value was “at least 80%”. Also, the inhibition of growth at 20 ppm in assay [1] (setting [4]) is not below 80%.

As for `COCC(=O)N(c1cnsc1)c1nc(C(=O)NC2CCC23CCCC3)c(C)s1` (stereo not shown) [Compound P8, 2-isothiazol-4-yl-(2-methoxyacetyl) amino-5-methyl-N-spiro 3.4 octan-3-yl-thiazole-4-carboxamide], the inhibition of growth at 20 ppm in assay [1] (setting [4]) is not below 80%.
